PubChem BioAssay AID276 (DTP/NCI, 2004)
Several values for one entry are separate records, joined by “and”; a condition that tells them apart may be missing. Equal entries are not always repeated. Inconclusive results and toxic doses are left out. How the source made its calls: active means survival T/C of 150% or more; inactive means T/C below 125% in these data.

Test system: B6C3F1 mice, Lewis lung carcinoma iv, survival T/C
Test: NCI In Vivo Anticancer Drug Screen. Data for tumor model Lewis Lung Carcinoma (intravenous) in B6C3F1 mice
Settings: endpoint: median survival time, higher = longer survival
Outline: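 Read-out is survival, expressed as the treated-group measurement over the vehicle control-group measurement. Animals bore a transplantable tumor and were given compound.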

[1] = dose: 6.25 mg/kg/injection, schedule: Q01DX009 (ip), vehicle: Klucel (hydroxypropylcellulose) (HPC)
[2] = dose: 12.5 mg/kg/injection, schedule: Q01DX009 (ip), vehicle: Klucel (hydroxypropylcellulose) (HPC)
[3] = dose: 25.0 mg/kg/injection, schedule: Q01DX009 (ip), vehicle: Klucel (hydroxypropylcellulose) (HPC)
[4] = dose: 50.0 mg/kg/injection, schedule: Q01DX009 (ip), vehicle: Klucel (hydroxypropylcellulose) (HPC)
[5] = dose: 100.0 mg/kg/injection, schedule: Q01DX009 (ip), vehicle: Klucel (hydroxypropylcellulose) (HPC)
[6] = dose: 400.0 mg/kg/injection, schedule: Q01DX009 (ip), vehicle: Klucel (hydroxypropylcellulose) (HPC)
[7] = dose: 12.5 mg/kg/injection, schedule: Q01DX009 (ip), vehicle: saline with Tween-80
[8] = dose: 25.0 mg/kg/injection, schedule: Q01DX009 (ip), vehicle: saline with Tween-80
[9] = dose: 50.0 mg/kg/injection, schedule: Q01DX009 (ip), vehicle: saline with Tween-80
[10] = dose: 100.0 mg/kg/injection, schedule: Q01DX009 (ip), vehicle: saline with Tween-80
[11] = dose: 200.0 mg/kg/injection, schedule: Q01DX009 (ip), vehicle: saline with Tween-80
[12] = dose: 400.0 mg/kg/injection, schedule: Q01DX009 (ip), vehicle: saline with Tween-80
[13] = dose: 6.25 mg/kg/injection, schedule: Q01DX009 (ip), vehicle: saline
[14] = dose: 12.5 mg/kg/injection, schedule: Q01DX009 (ip), vehicle: saline
[15] = dose: 25.0 mg/kg/injection, schedule: Q01DX009 (ip), vehicle: saline
[16] = dose: 2.5 mg/kg/injection, schedule: Q01DX009 (ip), vehicle: saline with Tween-80
[17] = dose: 50.0 mg/kg/injection, schedule: Q01DX009 (ip), vehicle: saline
[18] = dose: 100.0 mg/kg/injection, schedule: Q01DX009 (ip), vehicle: saline

Measured: T/C

COc1ccc(-c2csc(=[N+]3CCCCC3)s2)cc1
inactive: dose: 1.56 mg/kg/injection, schedule: Q01DX009 (ip), vehicle: water 108 % of control | dose: 3.12 mg/kg/injection, schedule: Q01DX009 (ip), vehicle: water 104 % of control | dose: 6.25 mg/kg/injection, schedule: Q01DX009 (ip), vehicle: water 104 % of control | dose: 12.5 mg/kg/injection, schedule: Q01DX009 (ip), vehicle: water 94 % of control | dose: 25.0 mg/kg/injection, schedule: Q01DX009 (ip), vehicle: water 95 % of control

C(C#CCN1CCOCC1)#CCN1CCOCC1
inactive: [1] 108 % of control | [2] 101 % of control | [3] 102 % of control | [4] 100 % of control | [5] 102 % of control | [6] 106 % of control

CCOC(=O)C1(c2ccccc2)C(=O)Oc2ccccc21 (stereo not given)
inactive: [7] 97 % of control | [8] 97 % of control | [9] 96 % of control | [10] 97 % of control | [11] 99 % of control | [12] 99 % of control

COc1cc(C(=O)N/N=C/c2cccc([N+](=O)[O-])c2)cc(OC)c1OC
inactive: [8] 97 % of control | [9] 98 % of control | [10] 105 % of control | [11] 93 % of control | [12] 101 % of control

O=C(O)CSc1c(Cl)c(=O)oc2ccc(Cl)cc12
inactive: [1] 93 % of control | [2] 93 % of control | [3] 94 % of control | [4] 98 % of control | [5] 98 % of control

CC(=O)O[C@@H]1CO[C@H]2O[C@H]3[C@@H](C(C=O)=C[C@H](O)[C@@H]4C5=C(C(C)C)CC[C@]5(C)CC[C@@]34C)[C@@]2(O)C1=O
inactive: dose: 0.75 mg/kg/injection, schedule: Q01DX009 (ip), vehicle: Klucel (hydroxypropylcellulose) (HPC) 103 % of control | dose: 1.5 mg/kg/injection, schedule: Q01DX009 (ip), vehicle: Klucel (hydroxypropylcellulose) (HPC) 98 % of control | dose: 3.0 mg/kg/injection, schedule: Q01DX009 (ip), vehicle: Klucel (hydroxypropylcellulose) (HPC) 100 % of control

CN(C)CCOc1ccc2c(c1)C/C(=C/c1ncc([N+](=O)[O-])n1C)C2=O
inactive: dose: 6.25 mg/kg/injection, schedule: Q01DX009 (ip), vehicle: saline with Tween-80 102 % of control | [7] 88 % of control | [8] 104 % of control | [9] 100 % of control

O=NN(CCF)C(=O)N[C@H]1CCCC[C@H]1O
active: dose: 10.0 mg/kg/injection, schedule: Q01DX009 (ip), vehicle: saline 173 % of control | dose: 20.0 mg/kg/injection, schedule: Q01DX009 (ip), vehicle: saline 312 % of control
inactive: dose: 2.5 mg/kg/injection, schedule: Q01DX009 (ip), vehicle: saline 105 % of control | dose: 5.0 mg/kg/injection, schedule: Q01DX009 (ip), vehicle: saline 121 % of control

O=NN(CCCl)C(=O)Oc1cc(Cl)c(Cl)cc1Cl
inactive: dose: 11.56 mg/kg/injection, schedule: Q01DX009 (ip), vehicle: Klucel (hydroxypropylcellulose) (HPC) 105 % of control | dose: 23.13 mg/kg/injection, schedule: Q01DX009 (ip), vehicle: Klucel (hydroxypropylcellulose) (HPC) 101 % of control | dose: 46.25 mg/kg/injection, schedule: Q01DX009 (ip), vehicle: Klucel (hydroxypropylcellulose) (HPC) 122 % of control

C[C@@H]1C[C@@H]([C@H](O)CC2CC(=O)NC(=O)C2)C(=O)[C@@H](C)C1
inactive: [13] 100 % of control | [14] 105 % of control | [15] 102 % of control

CN(C)CCNc1ccc([N+](=O)[O-])c2sc3ccccc3c(=O)c12
inactive: dose: 3.12 mg/kg/injection, schedule: Q01DX009 (ip), vehicle: saline 96 % of control | [13] 108 % of control | [14] 115 % of control | [15] 119 % of control

Cc1[nH]ccc(=O)c1O
inactive: dose: 16.0 mg/kg/injection, schedule: Q01DX009 (ip), vehicle: saline with Tween-80 87 % of control | dose: 32.0 mg/kg/injection, schedule: Q01DX009 (ip), vehicle: saline with Tween-80 95 % of control | dose: 64.0 mg/kg/injection, schedule: Q01DX009 (ip), vehicle: saline with Tween-80 101 % of control | dose: 128.0 mg/kg/injection, schedule: Q01DX009 (ip), vehicle: saline with Tween-80 108 % of control | dose: 256.0 mg/kg/injection, schedule: Q01DX009 (ip), vehicle: saline with Tween-80 99 % of control

O=C1N[C@@H]2C(=C[C@H](O)[C@@H](O)[C@H]2O)c2cc3c(c(O)c21)OCO3
inactive: dose: 0.62 mg/kg/injection, schedule: Q01DX009 (ip), vehicle: saline with Tween-80 93 % of control | dose: 0.63 mg/kg/injection, schedule: Q01DX009 (ip), vehicle: saline with Tween-80 112 % of control | dose: 1.25 mg/kg/injection, schedule: Q01DX009 (ip), vehicle: saline with Tween-80 107 % of control and 109 % of control | [16] 107 % of control and 117 % of control

O=NN(CCF)C(=O)NC1CCCCC1
inactive: [16] 109 % of control | dose: 3.12 mg/kg/injection, schedule: Q01DX009 (ip), vehicle: Klucel (hydroxypropylcellulose) (HPC) 107 % of control | dose: 5.0 mg/kg/injection, schedule: Q01DX009 (ip), vehicle: saline with Tween-80 109 % of control
active: dose: 10.0 mg/kg/injection, schedule: Q01DX009 (ip), vehicle: saline with Tween-80 155 % of control | [2] 269 % of control and 291 % of control | dose: 20.0 mg/kg/injection, schedule: Q01DX009 (ip), vehicle: saline with Tween-80 229 % of control | [3] 227 % of control

COc1cc(C2c3cc4c(cc3[C@@H](OC3OC5CO[C@@H](C)OC5C(O)C3O)[C@H]3COC(=O)C23)OCO4)cc(OC)c1OC (stereo not given in full)
inactive: [14] 113 % of control | [15] 121 % of control | [17] 117 % of control
active: [18] 191 % of control

CC(=O)ON(C(C)=O)c1ccc(C(N)=O)cc1
inactive: [8] 102 % of control | [9] 93 % of control | [10] 107 % of control | [11] 99 % of control | [12] 106 % of control

CC(=O)Oc1[nH]c(=O)c2cccc3c2c1CCC3
inactive: [8] 104 % of control | [9] 122 % of control | [10] 102 % of control | [11] 107 % of control | [12] 105 % of control

C[C@]12CCC(=O)C=C1CC[C@@H]1[C@@H]2[C@@H](O)C[C@@]2(C)[C@H]1CC[C@]2(O)C(=O)CO
inactive: [2] 110 % of control | [3] 107 % of control | [4] 97 % of control | [5] 106 % of control | dose: 200.0 mg/kg/injection, schedule: Q01DX009 (ip), vehicle: Klucel (hydroxypropylcellulose) (HPC) 100 % of control

CS(=O)(=O)CS(=O)(=O)OCCCl
active: [17] 284 % of control | [18] 239 % of control
inactive: [14] 107 % of control | [15] 120 % of control

C#C[C@]1(O)CC[C@H]2[C@@H]3CCc4cc(O)ccc4[C@H]3CC[C@@]21C
inactive: [4] 118 % of control and 122 % of control | [5] 113 % of control and 114 % of control | [6] 107 % of control

Cc1c(N)nc([C@H](CC(N)=O)NC[C@H](N)C(N)=O)nc1C(=O)N[C@H](C(=O)N[C@H](C)[C@@H](O)[C@H](C)C(=O)N[C@H](C(=O)NCCc1nc(-c2nc(C(=O)NCCC[S+](C)C)cs2)cs1)[C@@H](C)O)C(OC1OC(CO)C(O)C(O)C1OC1OC(CO)C(O)C(OC(N)=O)C1O)c1cnc[nH]1 (stereo not given in full)
inactive: dose: 1.0 mg/kg/injection, schedule: Q01DX009 (ip), vehicle: saline 113 % of control | dose: 2.0 mg/kg/injection, schedule: Q01DX009 (ip), vehicle: saline 97 % of control and 104 % of control and 112 % of control

COc1nc(C(Cl)(Cl)Cl)c(Cl)c(OC)c1Cl
inactive: dose: 25.0 mg/kg/injection, schedule: Q01DX008 (ip), vehicle: Klucel (hydroxypropylcellulose) (HPC) 120 % of control | dose: 50.0 mg/kg/injection, schedule: Q01DX008 (ip), vehicle: Klucel (hydroxypropylcellulose) (HPC) 113 % of control | dose: 100.0 mg/kg/injection, schedule: Q01DX008 (ip), vehicle: Klucel (hydroxypropylcellulose) (HPC) 113 % of control

COC1/C=C/C=C(/C)Cc2cc(O)c(Cl)c(c2)N(C)C(=O)CC(OC(=O)C(C)C)C2(C)OC2C(C)C2CC1(O)NC(=O)O2 (stereo not given)
inactive: dose: 0.06 mg/kg/injection, schedule: Q01DX009 (ip), vehicle: saline + alcohol 101 % of control | dose: 0.12 mg/kg/injection, schedule: Q01DX009 (ip), vehicle: saline + alcohol 96 % of control | dose: 0.25 mg/kg/injection, schedule: Q01DX009 (ip), vehicle: saline + alcohol 100 % of control | dose: 0.5 mg/kg/injection, schedule: Q01DX009 (ip), vehicle: saline + alcohol 100 % of control

CN(C)c1ncnc2c1ncn2C1OC(CO)C(N)C1O (stereo not given)
inactive: [15] 112 % of control
